Consider 19 compounds from US20190298661A1, “Transdermal Delivery of Phenethylamine Monoamine Releasers” (priority 2016, published 2019).

The nature of series [1]: In vitro skin permeation study, vertical static Franz-type diffusion cells, 24 h. Type of series: in vitro ADME, human. The note with it: for average amount permeated across dermatomed human skin: liquid base form; for flux / flux with 10% lauric acid versus propylene glycol alone: base 20 mg/mL; for calculated passive flux over 24 hours: base form, 40 mg/ml; for percent permeated through the skin within 24 hours: base; for flux enhancement compared to propylene glycol only group: base 40 mg/mL. Here is the method:
To test this prediction, skin permeation studies were conducted with 4-benzylpiperidine, phenmetrazine, and PAL-353 (3-flouroamphetamine) Based on the required dosing and technical capacity of patch technology, one objective was to develop a 24-hour patch. As such, the skin permeation studies were performed for 24 hours using vertical static Franz-type diffusion cells.
The recirculating water bath system was maintained at 37° C. to bring the skin surface temperature to 32° C. Each Franz cell comprised of a donor compartment containing the drug and a receiver compartment containing 1×PBS at pH 7.4 to ensure a diffusion gradient, with human dermatomed skin (described below) clamped between the two compartments. Permeation was followed by detection of drug in the receiver compartment using an alliance HPLC Waters 2695 Separations Module attached to a Waters UV detector system. A prodigy 5 u ODS (2) 150×4.60 mm 5 micron column with mobile phase of acetonitrile and water (0.05% TFA) at a flow rate of 1 mL/min and an injection volume 20 μL, with a retention time of 5.5 min, was detected at 259 nm wavelength. The same permeation and HPLC protocol was followed with 6 Franz cells (n=6) for each condition.
PAL-353 (3-flouroamphetamine) (10 mg/mL in a vehicle suitable for the enhancement technique being used) was placed in the donor compartment of the Franz cell.
The permeation of phenmetrazine and PAL-353 (3-flouroamphetamine) (3-FA) through dermatomed human cadaver skin was further studied using static Franz diffusion cells. Permeated drugs were quantified using a validated HPLC-UV method. The passive permeation of phenmetrazine and 3-FA was evaluated at the concentrations of 10 (phenmetrazine fumarate), 20 (phenmetrazine and 3-FA bases) and 40 (phenmetrazine and 3-FA bases) mg/mL in propylene glycol (PG). Further, the enhancement effect of oleic acid (5% w/w), oleyl alcohol (5% and 10% w/w) and lauric acid (10% w/w) on the permeation of phenmetrazine and 3-FA bases at 20 and 40 mg/mL was investigated.
Chemical permeation enhancers belonging to fatty acid or fatty alcohol group, oleic acid, oleyl alcohol and lauric acid were incorporated to improve the permeation rate of phenmetrazine (40 mg/mL) and 3-flouroamphetamine (20 mg/mL).
Iontophoretic delivery of PAL-353 across dermatomed human skin was also investigated. The donor chamber was filled with 500 μL of PAL-353 solution (10 mg/ml; 54% of saturation solubility) in 10 mM PBS, pH 7.4 containing 25 mM sodium chloride (n=4). The pH of the donor formulation as measured using glass electrode was around 4.0. Anodal iontophoresis was conducted where silver (anode) and silver chloride electrodes (cathode) were placed in the donor chamber and sampling port of the receptor chamber, respectively. It was ensured that there was no contact between the anode and skin in order to avoid skin damage due to high local voltage. The electrodes were then coupled in series to a source of constant current supply (Keithley 2400 Source Meter®, Keithley Instruments Inc., Cleveland, Ohio, USA). A current density of 0.5 mA/cm^2 was applied for 4 h. However, the total duration of the permeation study was 24 h and sampling was done at 0 h, 1 h, 2 h, 3 h, 4 h, 5 h, 6 h, 8 h, 22 h and 24 h.
This study was repeated keeping all the parameters same except that no current was applied (n=4). This group served as the passive control for comparison of the iontophoretic delivery of PAL-353 across human skin. Also, in a separate study, for these two groups, after 4 h, the formulations were removed and current was stopped in the iontophoresis group. Skin resistance was then measured using the procedure explained in section 2.2.3. Results have been presented as mean±SE.
Lag time was calculated as the x-intercept of the extrapolated linear portion of the permeation profiles (cumulative drug permeated/cm^2 plotted against the time). […]

Series [2] addresses SERT (Rattus norvegicus, UniProt P31652). Description: Release activity of phenethylamine analogs, SERT. Type of series: biochemical.
For series [3], the system named is NET. Kind of series: Release activity of phenethylamine analogs, NET. Type of series: biochemical. The note with it: ratio of EC50 values.
Series [4] relates to DAT. Kind of series: Release activity of phenethylamine analogs, DAT. Type of series: biochemical. The note with it: ratio of EC50 values.
Series [5] addresses DAT (Rattus norvegicus, UniProt P23977). Kind of series: Release activity of phenethylamine analogs, DAT. Type of series: biochemical.
Series [6] deals with EPIDERM. Description: Skin irritation potential of formulations, EPIDERM 3 dimensional model. The note with it: two formulations reaching therapeutic flux. Here is the method:
The skin irritation potential of our formulations were tested using EPIDERM™, which is a 3 dimensional model used to assess skin irritation.

For series [7] the following is noted: www.chemspider.com; cited from earlier work.
Where [8] appears, read: 100 mg of 2% HPC gel containing 10 mg of drug, 24 h.

Like-named read-outs stand apart in the source and are kept apart here. Bounds are passed on as bounds.

SERT, sequence (P31652 whole entry): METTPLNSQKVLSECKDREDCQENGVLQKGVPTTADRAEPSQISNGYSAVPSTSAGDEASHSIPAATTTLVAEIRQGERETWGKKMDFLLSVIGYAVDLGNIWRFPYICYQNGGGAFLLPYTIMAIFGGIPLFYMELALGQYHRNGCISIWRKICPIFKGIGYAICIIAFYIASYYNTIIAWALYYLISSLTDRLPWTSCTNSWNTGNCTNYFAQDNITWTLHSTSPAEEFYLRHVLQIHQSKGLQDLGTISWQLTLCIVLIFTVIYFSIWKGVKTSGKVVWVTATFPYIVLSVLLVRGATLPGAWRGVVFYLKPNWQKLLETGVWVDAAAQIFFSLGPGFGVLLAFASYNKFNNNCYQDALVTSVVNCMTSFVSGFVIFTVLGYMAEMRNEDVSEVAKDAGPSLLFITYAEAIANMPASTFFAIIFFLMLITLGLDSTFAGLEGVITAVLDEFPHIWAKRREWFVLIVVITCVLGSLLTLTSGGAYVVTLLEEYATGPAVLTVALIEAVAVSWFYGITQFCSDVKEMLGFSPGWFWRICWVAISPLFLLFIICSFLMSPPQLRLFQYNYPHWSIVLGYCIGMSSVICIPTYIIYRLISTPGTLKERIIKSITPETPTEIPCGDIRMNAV
DAT (Rattus norvegicus, UniProt P23977), sequence (P23977 whole entry): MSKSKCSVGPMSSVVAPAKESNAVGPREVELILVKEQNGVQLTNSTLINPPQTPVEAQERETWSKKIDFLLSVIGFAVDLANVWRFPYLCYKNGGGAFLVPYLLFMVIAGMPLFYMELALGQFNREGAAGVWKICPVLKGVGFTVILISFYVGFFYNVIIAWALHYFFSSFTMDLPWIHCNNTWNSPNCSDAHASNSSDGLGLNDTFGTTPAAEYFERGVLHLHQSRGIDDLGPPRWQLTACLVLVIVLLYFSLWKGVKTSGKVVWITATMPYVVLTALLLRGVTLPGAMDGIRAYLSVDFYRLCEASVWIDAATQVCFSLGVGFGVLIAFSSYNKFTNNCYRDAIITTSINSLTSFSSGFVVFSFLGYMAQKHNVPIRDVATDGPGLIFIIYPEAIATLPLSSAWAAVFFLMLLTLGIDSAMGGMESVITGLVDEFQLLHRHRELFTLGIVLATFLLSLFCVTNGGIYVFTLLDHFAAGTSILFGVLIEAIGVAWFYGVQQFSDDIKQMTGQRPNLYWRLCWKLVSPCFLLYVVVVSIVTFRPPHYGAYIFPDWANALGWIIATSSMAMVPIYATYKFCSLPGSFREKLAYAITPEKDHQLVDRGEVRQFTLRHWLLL

For `c1ccc(CC2CCNCC2)cc1` [4-benzylpiperidine, 4-Benzylpiperidine], in series [1] (setting [8]), the “average amount permeated across human dermatomed skin” value was 1824±425 μg/cm^2 and the “share of drug permeated across human dermatomed skin” value is given as “about 18%”. Moreover, the “average amount permeated across dermatomed human skin” value in series [1] (100 μL of 1 mg/ml in PG, passive, 24 h) is 33±8 μg/cm^2. The “average amount permeated across dermatomed human skin” value in series [1] (100 μL of 10 mg/ml in PG, passive, 24 h) was 288±71 μg/cm^2.

Usually EC50 stands for the midpoint of the concentration-response curve. `CC(N)Cc1ccc(Cl)cc1` (centres unmarked) [PAL-24] showed an EC50 in series [2] of 21.5 nM. Further, in series [3], the SERT/NET is recorded as 0.9. The SERT/DA in series [4] came to 0.3.

Consider `COc1cccc(CC(C)N)c1` (centres unmarked) [PAL-161], for which the midpoint of the response in series [2], the EC50, lay at 328 nM. Besides, the SERT/NET in series [3] worked out at 5.7. Further, in series [4], the SERT/DA is recorded as 3.2.

Compound `COc1ccc(CC(C)N)cc1` (centres unmarked) [PAL-162] came in with an EC50 in series [2] of 63.3 nM. Further, the SERT/NET in series [3] turned out to be 0.4. Further, the SERT/DA in series [4] is 0.1.

In series [2], `CC(N)Cc1ccc(F)cc1` (centres unmarked) [PAL-303] returned an EC50 of 939 nM. The SERT/NET in series [3] was 33.5. Also, the SERT/DA in series [4] worked out at 18.2.

With `CC(N)Cc1cccc(Cl)c1` (centres unmarked) [PAL-304], the figures for the EC50 in series [2] (read-out: EC50 SERT release) and in series [5] were 120 nM and 11.8 nM, respectively. Also, the SERT/NET in series [3] was determined as 12.8. Besides, the SERT/DA in series [4] was 10.2.

`CC(N)Cc1ccccc1C(F)(F)F` (centres unmarked) [PAL-307]: the EC50 in series [2] was over 10000 nM.

Compound `CC(N)Cc1ccc(OC(F)(F)F)cc1` (centres unmarked) [PAL-309] yielded an EC50 in series [2] of 82.2 nM. Further, the SERT/NET in series [3] is 0.2. Besides, the SERT/DA in series [4] is on record as 0.0.

For `Cc1ccc(CC(C)N)cc1` (centres unmarked) [PAL-313], the EC50 in series [2] is 53.4 nM. For the same compound, the SERT/NET in series [3] is 2.4. In addition, the SERT/DA in series [4] came to 1.2.

Compound `Cc1cccc(CC(C)N)c1` (centres unmarked) [PAL-314] showed an EC50 in series [2] of 218 nM. In addition, the SERT/NET in series [3] amounted to 11.9. For the same compound, the SERT/DA in series [4] stood at 6.5.

In series [2], `Cc1ccccc1CC(C)N` (centres unmarked) [PAL-315] showed an EC50 of 973 nM. Moreover, the SERT/NET in series [3] worked out at 26.3. In series [4], the SERT/DA was determined as 7.7.

In turn, `CC(N)Cc1ccc(C(C)C)cc1` (centres unmarked) [PAL-334] came in with an EC50 in series [2] of 79.2 nM.

`CCc1ccc(CC(C)N)cc1` (centres unmarked) [PAL-335] had an EC50 in series [2] of 36.1 nM. Further, the SERT/NET in series [3] was found to be 0.3. For the same compound, the SERT/DA in series [4] turned out to be 0.1.

`CC(N)Cc1cccc(F)c1` (centres unmarked) [PAL-353, 3-fluoroamphetamine]: it took 1940 nM to reach a half-maximal effect in series [2] (EC50). Further, the “passive permeation over 24 h” value in series [1] (10 mg/ml in 10 mM PBS, no current) worked out at 3.94±0.53 μg/cm^2. Moreover, in series [1] (20 mg/mL, 5% w/w oleic acid, not significant), the “flux enhancement compared to PG alone” value is given as about 40%. Moreover, the “flux as percent of the control group” value in series [1] (20 mg/mL, 5% w/w oleyl alcohol in PG) was found to be 389%; in series [1] (20 mg/mL, 10% w/w oleyl alcohol in PG), 370%. Moreover, the “increase of cumulative drug permeation by iontophoresis versus passive” value in series [1] (PBS, 24 h period) is on record as 548 fold. In series [1] (PG, 24 h), the “enhancement of skin permeation by ablative laser versus passive” value was found to be 508 times. In addition, the lag time entry in series [1] (anodal iontophoresis, x-intercept of linear portion of permeation profile) is on record as “around 3.5 h”. The flux in series [1] (5% oleic acid in PG) was found to be 109.8±17.94 μg/cm^2/h; in series [1] (10% oleyl alcohol in PG), 292.0±31.70 μg/cm^2/h. The “flux with 10% lauric acid versus propylene glycol alone” value is “did not show significant difference” in series [1] (10% w/w lauric acid in PG, listed as 3-FA base) and “did not impact the flux at all” in series [1] (10% w/w lauric acid in PG, listed as 3-flouroamphetamine). In series [1] (passive), the “calculated passive flux over 24 hours” value is on record as 3784.62±173.52 μg/cm^2. The “percent permeated through the skin within 24 hours” value in series [1] (20 mg/mL in PG, passive) came to 41.4±1.18%; in series [1] (40 mg/mL in PG, passive), 74.45±3.43%. The “enhancement by maltose microneedles versus control” value in series [1] (hydrochloride in PG, 24 h) is given as 7 fold. Besides, the “permeation after 24 h, skin pre-treated with maltose microneedles” value in series [1] (hydrochloride, solution in PG) came to 7.35±4.87 μg/cm^2. The “passive permeation after 24 h” value in series [1] (hydrochloride, solution in propylene glycol (control)) is 1.03±0.17 μg/cm^2. Besides, in series [1] (passive), the “passive permeation in PBS compared to PG” value is listed as “approximately four”. Also, the “permeation over 24 hours with anodal iontophoresis” value in series [1] (salt form (hydrochloride), 10 mg/ml in PBS, 0.5 mA/cm^2 for 4 h, 24 h) was found to be 2159.43±301.14 μg/cm^2. Also, the “permeation after skin microporation by ablative laser” value in series [1] (solution in PG, P.L.E.A.S.E. laser, 24 h) is 523.24±86.79 μg/cm^2. Also, the SERT/NET in series [3] amounted to 120. The SERT/DA in series [4] is 80. For the same compound, the “predicted skin irritation of formulations reaching therapeutic flux” value in series [6] is “irritant”.

For the compound `CC(N)Cc1cccc(C(F)(F)F)c1` (centres unmarked) [PAL-677], in series [2], a half-maximal effect (EC50) was put at 104 nM. Besides, in series [3], the SERT/NET is given as 0.6. Moreover, the SERT/DA in series [4] stood at 0.1.

`CCc1cccc(CC(C)N)c1` (centres unmarked) [PAL-1386] yielded an EC50 in series [2] of 160 nM. Besides, in series [3], the SERT/NET is 1.4. Further, the SERT/DA in series [4] came to 1.3.

As a reminder, the log P is the decadic logarithm of the partition coefficient of the neutral form, usually between octanol and water. `C[C@H]1[C@H](c2ccccc2)OCCN1C` [phendimetrazine]: the “log P” value in series [7] was 2.17.

As for `CC1NCCOC1c1ccccc1` (centres unmarked) [phenmetrazine, Phenmetrazine, reference compound], in series [1] (40 mg/mL, 5% w/w oleyl alcohol in PG), the “flux increase compared to group without enhancer” value is reported as about 10 folds. In addition, in series [1] (40 mg/mL, both enhancers at 5% w/w), the “efficiency of oleyl alcohol as permeation enhancer over oleic acid” value worked out at 53.4%. Besides, in series [1] (40 mg/mL, irrespective of oleyl alcohol concentration), the “flux enhancement by oleyl alcohol compared to lauric acid” value is about 240%. The “flux enhancement compared to propylene glycol only group” value in series [1] (5% w/w oleic acid in PG) is listed as 7.6 fold; in series [1] (10% w/w lauric acid in PG), 3.4 fold; in series [1] (10% w/w oleyl alcohol in PG), about 10 fold; in series [1] (10% w/w oleyl alcohol in PG, listed as phenmetrazine base), 11.4 fold. The “calculated passive flux over 24 hours” value in series [1] (passive) is on record as 359.05±82.36 μg/cm^2. Besides, the “percent permeated through the skin within 24 hours” value in series [1] (20 mg/mL in PG, passive) was determined as 1.86±0.41%; in series [1] (40 mg/mL in PG, passive) it was 5.74±1.32%. In series [6], the “predicted skin irritation of formulations reaching therapeutic flux” value was “irritant”.

Regarding “Phenmetrazine fumarate [reference compound]”, the “passive permeation over 24 hours” value in series [1] (10 mg/mL in propylene glycol) is on record as “no permeation”.
